Measured values taken from patent US6849435B2, “Use of VLCFAE for identifying herbicidally active compounds” (Bayer Aktiengesellschaft, priority 2000, dated 2005).
Entries after “also recorded” stand apart in the source; their conditions may differ.

Tests used:
[1] = tested on: C18:1 fatty acid elongation; settings: cited from earlier work
[2] = tested on: Arabidopsis thaliana; test: Herbicide treatment of Arabidopsis thaliana with flufenacet: generation of the fiddlehead phenotype; assay type: in vivo, Arabidopsis thaliana (ecotype Columbia Col-0)
Procedure: Herbicide Treatment of Arabidopsis thaliana With Flufenacet: Generation of the Fiddlehead Phenotype Arabidopsis seeds (ecotype Columbia Col-0), which were stored at 4° C., were sown in soil and cultivated at 22° C.±2° C. under long-day conditions (16 h light/8h dark). Plants 2 weeks old were sprayed with 250 g/ha and 50 g/ha flufenacet and cultivated further at 22° C.±2° C. under long-day conditions (16 h light/8h dark). […] These fusions are very similar to those in the “fiddlehead” mutants.

Compound: CN(C)c1cnn(-c2ccccc2)c(=O)c1Cl [BAS 13-338]
- inhibition of C18:1 fatty acid elongation [1]: inhibit C18:1 fatty acid elongation

Compound: CC(C)N(C(=O)COc1nnc(C(F)(F)F)s1)c1ccc(F)cc1 [flufenacet]
- appearance of flowers after recovery ([2]; from day 18 after treatment with 250 g/ha and 50 g/ha): all the flowers appear normal again
- fusion of the rosette leaves ([2]; in vivo): leads to fusion of the rosette leaves
- fiddlehead phenotype (fusion of flower organs) ([2]; plants 2 weeks old sprayed with 250 g/ha and 50 g/ha, between day 7 and day 11 after treatment): fiddlehead phenotype can be induced; also recorded: the flower organs fuse with the uppermost cauline leaves
